Reference: patent US5162336A, “Tetrahydro-pyrido-indoles as cholecystokinin and gastrin antagonists” (Rhone-Poulenc Rorer Pharmaceuticals Inc., priority 1990, dated 1992)

Molecular target: T1, CCK-A receptor (Rattus norvegicus, UniProt P30551)
T1 construct: from tissue; host or cells: pancreas membranes of Sprague-Dawley rat
T1 sequence (P30551 1-444): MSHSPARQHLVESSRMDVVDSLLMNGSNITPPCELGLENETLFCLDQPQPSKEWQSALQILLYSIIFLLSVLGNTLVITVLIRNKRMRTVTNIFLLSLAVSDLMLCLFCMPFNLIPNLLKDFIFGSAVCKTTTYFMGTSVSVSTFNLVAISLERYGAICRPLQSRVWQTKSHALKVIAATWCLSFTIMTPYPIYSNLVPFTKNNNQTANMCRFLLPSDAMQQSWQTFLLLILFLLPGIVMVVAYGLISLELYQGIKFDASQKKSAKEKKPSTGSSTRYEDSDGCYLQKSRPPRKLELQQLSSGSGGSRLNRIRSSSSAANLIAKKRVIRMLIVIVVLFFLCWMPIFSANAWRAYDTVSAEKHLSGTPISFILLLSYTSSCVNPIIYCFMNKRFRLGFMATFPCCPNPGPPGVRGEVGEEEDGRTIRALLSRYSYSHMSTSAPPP
Experiment: CCK-A receptor binding assay (displacement of 3H-L-364,718 from rat pancreas membranes)
Set-up: species or system Sprague-Dawley rat
Details: 3H-L-364,718 0.2 nM, 37° C., 30 min, read-out: In vitro Binding Data IC50 CCK
Summary of the method: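 Rat pancreas membranes incubated 30 min at 37 °C with 0.2 nM 3H-L-364,718 in 50 mM Tris pH 7.7, 5 mM MgCl2, 5 mM DTT, 0.14 mg/ml bacitracin, 2 mg/ml BSA. Nonspecific binding defined by 300 nM unlabeled L-364,718; rapid filtration and scintillation counting, triplicates.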

Q: Which IC50 does the source give for `Cc1cccc(NC(=O)N2Cc3[nH]c4ccccc4c3C[C@@H]2C(=O)N[C@@H](CC(C)C)C(=O)N[C@@H](Cc2ccccc2)C(N)=O)c1` [Example 42] here?
A: Its IC50 is 4 µM.
